pEC50, pIC50: −log10 of the molar value. The source made the active and inactive calls. No cut-off for these calls is given here.
How the values were obtained:
[1] = Toxicity in BALB/c nude mouse xenografted with human NCI-H3122 cells assessed as effect on liver function at 50 mg/kg, IG administered once daily for 18 days by H and E staining based assay; type: organism-based; conditions: in vivo, po, 432 h, time 18 day
NCI-H3122 [2] = experiment: Antiproliferative activity against human NCI-H3122 cells assessed as inhibition of cell growth incubated for 5 days by MTT assay; type: functional, cell-based; conditions: NCI-H3122, 120 h
[3] = Toxicity in BALB/c nude mouse xenografted with human NCI-H3122 cells assessed as effect on visceral kidney morphology at 50 mg/kg, IG administered once daily for 18 days and measured after 12 hrs of last dose by H and E staining based assay; type: organism-based; conditions: in vivo, po, 444 h
[4] = Toxicity in BALB/c nude mouse xenografted with human NCI-H3122 cells assessed as effect on kidney function at 50 mg/kg, IG administered once daily for 18 days by H and E staining based assay; type: organism-based; conditions: in vivo, po, 432 h, time 18 day
[5] = Toxicity in BALB/c nude mouse xenografted with human NCI-H3122 cells assessed as tolerance at 25 to 50 mg/kg, IG administered once daily for 18 days; type: organism-based; conditions: in vivo, po, 432 h, dose 25-50 mg/kg, time 18 day
NCI-H3122 [6] = experiment: Antiproliferative activity against human NCI-H3122 cells assessed as inhibition of cell growth incubated for 5 days in presence of 2-(4-(6-((6-acetyl-8-cyclopentyl-5-methyl-7-oxo-7,8-dihydropyrido[2,3-d]pyrimidin-2-yl)amino)pyridin-3-yl)piperazin-1-yl)-N-(2-mercaptoethyl)acetamide by MTT assay; type: functional, cell-based; conditions: NCI-H3122, 120 h
[7] = Toxicity in BALB/c nude mouse xenografted with human NCI-H3122 cells assessed as effect on visceral spleen morphology at 50 mg/kg, IG administered once daily for 18 days and measured after 12 hrs of last dose by H and E staining based assay; type: organism-based; conditions: in vivo, po, 444 h
NCI-H3122 [8] = experiment: Antitumor activity against human NCI-H3122 cells xenografted in BALB/c nude mouse assessed as reduction in tumor volume at 50 mg/kg, IG administered once daily for 18 days and measured after 12 hrs of last dose; type: functional, organism-based; conditions: time 444.0 hrs
[9] = Toxicity in BALB/c nude mouse xenografted with human NCI-H3122 cells assessed as effect on visceral heart morphology at 50 mg/kg, IG administered once daily for 18 days and measured after 12 hrs of last dose by H and E staining based assay; type: organism-based; conditions: in vivo, po, 444 h
[10] = Toxicity in BALB/c nude mouse xenografted with human NCI-H3122 cells assessed as effect on heart function at 50 mg/kg, IG administered once daily for 18 days and measured after 12 hrs of last dose by H and E staining based assay; type: organism-based; conditions: in vivo, po, 444 h
[11] = Toxicity in BALB/c nude mouse xenografted with human NCI-H3122 cells assessed as effect on lung function at 50 mg/kg, IG administered once daily for 18 days by H and E staining based assay; type: organism-based; conditions: in vivo, po, 432 h, time 18 day
[12] = Toxicity in BALB/c nude mouse xenografted with human NCI-H3122 cells assessed as effect on visceral liver morphology at 50 mg/kg, IG administered once daily for 18 days and measured after 12 hrs of last dose by H and E staining based assay; type: organism-based; conditions: in vivo, po, 444 h
NCI-H3122 [13] = experiment: Antitumor activity against human NCI-H3122 cells xenografted in BALB/c nude mouse assessed as reduction in tumor weight at 50 mg/kg, IG administered once daily for 18 days and measured after 12 hrs of last dose; type: functional, organism-based; conditions: time 444.0 hrs
[14] = Toxicity in BALB/c nude mouse xenografted with human NCI-H3122 cells assessed as effect on visceral lung morphology at 50 mg/kg, IG administered once daily for 18 days and measured after 12 hrs of last dose by H and E staining based assay; type: organism-based; conditions: in vivo, po, 444 h
NCI-H3122 [15] = experiment: Antitumor activity against human NCI-H3122 cells xenografted in BALB/c nude mouse assessed as tumor growth inhibition at 50 mg/kg, IG administered once daily for 18 days and measured after 12 hrs of last dose relative to control; type: functional; conditions: NCI-H3122, po, time 444 hrs, read-out: TGI
[16] = Toxicity in BALB/c nude mouse xenografted with human NCI-H3122 cells assessed as reduction in body weight at 25 to 50 mg/kg, IG administered once daily for 18 days; type: organism-based; conditions: in vivo, po, 432 h, dose 25-50 mg/kg, time 18 day
[17] = target: ALK tyrosine kinase receptor (Homo sapiens) (UniProt Q9UM73); experiment: Inhibition of ALK (unknown origin) at 0.05 uM by LANCE Ultra TR-FRET assay relative to control
Mus musculus = experiment: In vivo PROTAC activity at CRBN/EML4-ALK in BALB/c nude mouse xenografted with human NCI-H3122 cells assessed as reduction in EML4-ALK protein expression in tumor at 50 mg/kg, IG administered once daily for 18 days and measured after 12 hrs of last dose by immunohistochemical analysis; type: functional, organism-based; conditions: time 444.0 hrs
[18] = Toxicity in BALB/c nude mouse xenografted with human NCI-H3122 cells assessed as effect on spleen function at 50 mg/kg, IG administered once daily for 18 days by H and E staining based assay; type: organism-based; conditions: in vivo, po, 432 h, time 18 day
[19] = target: ALK tyrosine kinase receptor (Homo sapiens) (UniProt Q9UM73); experiment: Inhibition of ALK (unknown origin) at 1 uM by LANCE Ultra TR-FRET assay relative to control
[20] = target: Protein cereblon/ALK tyrosine kinase receptor (Homo sapiens, UniProt Q96SW2+Q9UM73); experiment: PROTAC activity at CRBN/ALK in human NCI-H3122 cells assessed as induction of ALK degradation incubated for 24 hrs by Western blot analysis; type: cell-based
Protein cereblon/ALK tyrosine kinase receptor, sequence (Q9UM73 whole entry): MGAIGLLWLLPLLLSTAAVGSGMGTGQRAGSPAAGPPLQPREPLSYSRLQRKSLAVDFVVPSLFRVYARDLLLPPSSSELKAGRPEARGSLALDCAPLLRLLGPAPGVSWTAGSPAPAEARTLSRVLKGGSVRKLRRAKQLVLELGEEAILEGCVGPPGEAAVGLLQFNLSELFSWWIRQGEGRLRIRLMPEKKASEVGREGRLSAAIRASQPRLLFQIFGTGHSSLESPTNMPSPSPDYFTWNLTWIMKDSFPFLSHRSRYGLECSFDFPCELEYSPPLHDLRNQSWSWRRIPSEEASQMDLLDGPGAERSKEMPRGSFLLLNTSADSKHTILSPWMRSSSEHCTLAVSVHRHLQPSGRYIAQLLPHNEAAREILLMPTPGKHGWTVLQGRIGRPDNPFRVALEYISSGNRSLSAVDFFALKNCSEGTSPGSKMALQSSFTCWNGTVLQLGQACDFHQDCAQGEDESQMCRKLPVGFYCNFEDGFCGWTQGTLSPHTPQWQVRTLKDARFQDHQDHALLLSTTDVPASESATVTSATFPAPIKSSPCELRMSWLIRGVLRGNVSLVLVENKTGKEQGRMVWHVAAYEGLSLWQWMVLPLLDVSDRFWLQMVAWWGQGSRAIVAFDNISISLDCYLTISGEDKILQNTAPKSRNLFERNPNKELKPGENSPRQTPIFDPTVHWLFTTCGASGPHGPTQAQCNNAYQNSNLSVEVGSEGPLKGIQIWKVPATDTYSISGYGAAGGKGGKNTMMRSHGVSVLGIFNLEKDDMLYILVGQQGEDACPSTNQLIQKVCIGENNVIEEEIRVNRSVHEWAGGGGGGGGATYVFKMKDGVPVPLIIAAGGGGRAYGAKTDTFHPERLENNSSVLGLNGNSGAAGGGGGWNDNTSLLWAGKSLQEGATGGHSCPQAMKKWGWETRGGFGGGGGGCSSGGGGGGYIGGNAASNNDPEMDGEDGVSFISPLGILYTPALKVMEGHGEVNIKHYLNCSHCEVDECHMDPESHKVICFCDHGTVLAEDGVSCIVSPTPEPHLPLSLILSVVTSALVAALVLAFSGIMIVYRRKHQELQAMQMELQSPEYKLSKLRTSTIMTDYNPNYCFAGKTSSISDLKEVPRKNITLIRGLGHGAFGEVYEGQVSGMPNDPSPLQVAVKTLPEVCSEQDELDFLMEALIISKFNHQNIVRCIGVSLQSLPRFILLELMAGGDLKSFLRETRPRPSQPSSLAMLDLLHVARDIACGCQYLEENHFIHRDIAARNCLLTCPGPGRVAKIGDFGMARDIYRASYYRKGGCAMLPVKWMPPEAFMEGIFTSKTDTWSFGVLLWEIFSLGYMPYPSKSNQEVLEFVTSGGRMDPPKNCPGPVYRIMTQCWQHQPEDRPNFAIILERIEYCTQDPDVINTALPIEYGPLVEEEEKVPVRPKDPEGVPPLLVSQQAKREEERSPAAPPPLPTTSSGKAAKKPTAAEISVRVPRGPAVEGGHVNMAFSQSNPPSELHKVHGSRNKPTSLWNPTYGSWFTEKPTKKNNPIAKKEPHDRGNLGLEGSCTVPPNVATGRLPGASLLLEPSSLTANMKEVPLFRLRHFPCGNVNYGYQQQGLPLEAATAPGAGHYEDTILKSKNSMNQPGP
Protein cereblon/ALK tyrosine kinase receptor, sequence (Q96SW2 whole entry): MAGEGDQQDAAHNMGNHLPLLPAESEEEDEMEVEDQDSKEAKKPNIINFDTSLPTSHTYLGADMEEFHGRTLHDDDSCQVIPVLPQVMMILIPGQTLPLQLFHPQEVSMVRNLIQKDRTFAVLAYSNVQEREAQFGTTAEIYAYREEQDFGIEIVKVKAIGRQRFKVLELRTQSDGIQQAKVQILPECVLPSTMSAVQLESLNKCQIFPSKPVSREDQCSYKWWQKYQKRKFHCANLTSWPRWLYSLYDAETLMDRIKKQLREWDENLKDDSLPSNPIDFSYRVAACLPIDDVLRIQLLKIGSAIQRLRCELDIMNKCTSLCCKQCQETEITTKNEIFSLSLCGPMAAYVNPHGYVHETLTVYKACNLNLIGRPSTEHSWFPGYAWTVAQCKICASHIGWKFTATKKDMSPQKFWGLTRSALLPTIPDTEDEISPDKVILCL

ALK tyrosine kinase receptor (Homo sapiens), sequence (Q9UM73 19-1620 limits assumed): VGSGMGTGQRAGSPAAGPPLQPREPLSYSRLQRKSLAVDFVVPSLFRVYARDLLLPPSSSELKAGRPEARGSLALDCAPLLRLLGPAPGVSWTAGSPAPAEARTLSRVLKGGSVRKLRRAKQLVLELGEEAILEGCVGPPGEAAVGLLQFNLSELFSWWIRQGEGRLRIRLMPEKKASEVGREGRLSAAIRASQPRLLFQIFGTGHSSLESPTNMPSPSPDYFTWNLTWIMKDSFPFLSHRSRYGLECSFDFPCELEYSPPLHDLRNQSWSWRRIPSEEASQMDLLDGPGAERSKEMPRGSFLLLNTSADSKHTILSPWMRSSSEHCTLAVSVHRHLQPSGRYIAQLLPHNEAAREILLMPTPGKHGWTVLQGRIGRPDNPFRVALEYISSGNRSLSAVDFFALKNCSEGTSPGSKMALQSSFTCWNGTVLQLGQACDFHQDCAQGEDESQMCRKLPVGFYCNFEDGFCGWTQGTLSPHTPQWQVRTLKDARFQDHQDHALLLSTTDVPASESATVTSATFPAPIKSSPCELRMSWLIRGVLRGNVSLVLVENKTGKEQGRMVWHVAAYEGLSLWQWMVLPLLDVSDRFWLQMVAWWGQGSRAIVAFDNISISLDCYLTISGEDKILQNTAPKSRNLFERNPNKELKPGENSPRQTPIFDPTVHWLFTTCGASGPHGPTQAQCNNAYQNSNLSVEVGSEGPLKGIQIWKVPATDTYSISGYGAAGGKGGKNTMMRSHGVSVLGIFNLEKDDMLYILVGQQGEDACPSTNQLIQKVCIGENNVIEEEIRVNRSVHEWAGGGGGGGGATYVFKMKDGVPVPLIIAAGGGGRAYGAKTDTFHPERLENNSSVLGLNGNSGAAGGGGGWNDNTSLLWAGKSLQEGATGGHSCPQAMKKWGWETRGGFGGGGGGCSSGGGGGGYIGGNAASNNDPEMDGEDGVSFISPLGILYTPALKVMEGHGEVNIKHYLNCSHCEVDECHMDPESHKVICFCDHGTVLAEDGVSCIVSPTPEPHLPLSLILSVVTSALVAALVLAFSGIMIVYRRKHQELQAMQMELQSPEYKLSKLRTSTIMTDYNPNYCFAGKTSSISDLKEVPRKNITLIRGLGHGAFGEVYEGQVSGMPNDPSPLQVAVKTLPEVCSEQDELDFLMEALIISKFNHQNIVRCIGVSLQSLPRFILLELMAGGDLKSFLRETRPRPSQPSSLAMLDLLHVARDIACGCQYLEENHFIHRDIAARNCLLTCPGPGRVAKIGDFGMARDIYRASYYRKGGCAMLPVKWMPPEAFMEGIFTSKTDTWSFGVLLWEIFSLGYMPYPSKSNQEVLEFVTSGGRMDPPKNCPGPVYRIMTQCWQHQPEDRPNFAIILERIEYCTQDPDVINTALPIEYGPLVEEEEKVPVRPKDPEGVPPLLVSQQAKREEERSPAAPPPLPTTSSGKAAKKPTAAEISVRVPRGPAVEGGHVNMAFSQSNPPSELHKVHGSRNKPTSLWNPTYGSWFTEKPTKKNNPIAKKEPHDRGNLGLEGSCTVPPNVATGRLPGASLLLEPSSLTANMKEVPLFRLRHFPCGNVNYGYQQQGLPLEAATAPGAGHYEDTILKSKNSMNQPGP

Cc1cc(Nc2ncc(Cl)c(Nc3ccccc3S(=O)(=O)C(C)C)n2)c(OC(C)C)cc1C1CCN(C(=O)CCCCCCC(=O)N(CCS)CC(=O)NCCNc2cccc3c2C(=O)N(C2CCC(=O)NC2=O)C3=O)CC1 (stereo unspecified)
Activity [1]: Non-Toxic | pIC50 (NCI-H3122 [2]): 6.42 | Activity [3]: Non-Toxic | Activity [4]: Non-Toxic | Activity [5]: Non-Toxic | pIC50 (NCI-H3122 [6]): 6.72 | Activity [7]: Non-Toxic | Activity (NCI-H3122 [8]): Active | Activity [9]: Non-Toxic | Activity [10]: Non-Toxic | Activity [11]: Non-Toxic | Activity [12]: Non-Toxic | Activity (NCI-H3122 [13]): Active | Activity [14]: Non-Toxic | inhibition in vivo at 50 mg/kg (NCI-H3122 [15]): 51.1% | Activity [16]: Non-Toxic | inhibition [17]: 82.2% | Activity (Mus musculus): Active | Activity [18]: Non-Toxic | inhibition [19]: 93% | pEC50 [20]: 6.16
